Measurements as given in US9221864B2, “Tricyclic nucleic acid analogs” (Isis Pharmaceuticals, Inc., priority 2012, dated 2015).

What was measured:
Type in all cases: binding
[1] = tested on: mismatched RNA complement 5′-r(AGCAAAZAACGC)-3′, Z=G; test: Mismatch discrimination (Tm) vs mismatched RNA complement, Z=G; conditions: 1.2 μM, 10 mM sodium phosphate buffer pH 7.2, 100 mM NaCl, 0.1 mM EDTA
Method: (§1) The oligomeric compounds in Table 1 were evaluated for thermal stability (Tm) using the method described herein. The Tm of the modified 12mer oligomeric compounds were compared to an unmodified 12mer DNA oligonucleotide when duplexed to either the matched or mismatched RNA complement.
(§2) Tm's were determined using a Cary 100 Bio spectrophotometer with the Cary Win UV thermal program was used to measure absorbance vs. temperature. For the Tm experiments, the oligomeric compounds were prepared at a concentration of 1.2 μM in 10 mM sodium phosphate buffer (pH 7.2) containing 100 mM NaCl and 0.1 mM EDTA. The concentrations, determined at 85° C. was 1.2 μM after mixing of equal volumes of selected oligomeric compound and complementary matched or mismatched RNA. The oligomeric compounds were hybridized with a complimentary matched or mismatched RNA by heating the duplex to 90° C. for 5 minutes and then cooling to room temperature. Tm measurements were taken using a spectrophotometer while the duplex solution was heated in a cuvette at a rate of 0.5° C./min starting at 15° C. until the temperature was 85° C. Tm values were determined using Vant Hoff calculations (A260 vs temperature curve) using non self-complementary sequences where the minimum absorbance related to the duplex and the maximum absorbance related to the non-duplex single strand are manually integrated into the program. Mismatched thermal stability was also measured and calculated by subtracting values of Tm measured vs the mismatched RNA complement from values of Tm vs the matched RNA complement for each modification.
(§3) The sequence for matched DNA complement is designated herein as SEQ ID No.: 6, 5′-d(AGCAAAXAACGC)-3′, wherein X=A. The sequence for matched RNA complement is designated herein as SEQ ID No.: 6, 5′-r(AGCAAAYAACGC)-3′, wherein Y=A. The mismatched RNA complement sequence is designated herein as SEQ ID No.: 7, 5′-r(AGCAAAZAACGC)-3′, wherein Z=G, C or U.

[2] = tested on: mismatched RNA complement 5′-r(AGCAAAZAACGC)-3′, Z=U; test: Mismatch discrimination (Tm) vs mismatched RNA complement, Z=U; conditions: 1.2 μM, 10 mM sodium phosphate buffer pH 7.2, 100 mM NaCl, 0.1 mM EDTA
Method: as §1
as §2, with “Mismatched thermal stability was also measured and calculated by subtracting values of Tm measured vs the mismatched RNA complement from values of Tm vs the matched RNA complement for each modification.” left out
as §3

[3] = tested on: matched DNA complement 5′-d(AGCAAAXAACGC)-3′, X=A; test: Thermal stability (Tm) of 12mer oligomeric compounds duplexed to matched DNA complement; conditions: relative to unmodified DNA 12mer ISIS 438705; 1.2 μM, 10 mM sodium phosphate buffer pH 7.2, 100 mM NaCl, 0.1 mM EDTA
Method: as §1, §2, §3

[4] = tested on: mismatched RNA complement 5′-r(AGCAAAZAACGC)-3′, Z=C; test: Mismatch discrimination (Tm) vs mismatched RNA complement, Z=C; conditions: 1.2 μM, 10 mM sodium phosphate buffer pH 7.2, 100 mM NaCl, 0.1 mM EDTA
Method: as §1
as §2, with “Mismatched thermal stability was also measured and calculated by subtracting values of Tm measured vs the mismatched RNA complement from values of Tm vs the matched RNA complement for each modification.” left out
as §3

[5] = tested on: matched RNA complement 5′-r(AGCAAAYAACGC)-3′, Y=A; test: Thermal stability (Tm) of 12mer oligomeric compounds duplexed to matched RNA complement; conditions: relative to unmodified DNA 12mer ISIS 438705; 1.2 μM, 10 mM sodium phosphate buffer pH 7.2, 100 mM NaCl, 0.1 mM EDTA
Method: as §1, §2, §3

Row | Substance | ΔTm/mod vs RNA, Mismatched, Z = G; Mismatched Discrimination [Tm(mismatched) − Tm(matched)] [1] [°C] | ΔTm/mod vs RNA, Mismatched, Z = U; Mismatched Discrimination [Tm(mismatched) − Tm(matched)] [2] [°C] | ΔTm/mod vs DNA, Matched, X = A [3] | ΔTm/mod vs RNA, Mismatched, Z = C; Mismatched Discrimination [Tm(mismatched) − Tm(matched)] [4] [°C] | ΔTm/mod vs RNA, Matched, Y = A [5]
1 | A01: 12mer GCGTTTbTTTGCT with one α-L-TriNA (α-L-tricyclic nucleic acid) nucleoside, phosphodiester linkages, SEQ ID No. 5 (DNA GCGTTT_{b}TTTGCT; as printed in the source, key not given here) [Compound A01] | −5.5 | −17.0 | +2.6 °C | −16.7 | +7.1 °C
2 | ISIS 438705: unmodified 12mer DNA GCGTTTTTTGCT, phosphodiester linkages, SEQ ID No. 5, purchased from commercial sources (unmodified DNA) | −4.1 | −13.2 | 0 (ref) ° C. | −13.0 | 0 (ref) ° C.
3 | ISIS 438707: 12mer GCGTTT1TTTGCT with one LNA nucleoside, phosphodiester linkages, SEQ ID No. 5 (DNA GCGTTT_{1}TTTGCT; as printed in the source, key not given here) | −5.4 | −13.7 | +1.7 °C | −15.4 | +5.5 °C
4 | ISIS 560180: 12mer GCGTTTaTTTGCT with one α-L-LNA nucleoside, phosphodiester linkages, SEQ ID No. 5 (DNA GCGTTT_{a}TTTGCT; as printed in the source, key not given here) | −4.7 | −13.5 | +1.4 °C | −14.8 | +5.7 °C
